# Assay results reported in ChEMBL document CHEMBL1135951, “Potential anxiolytic agents. Part 4: novel orally-active N(5)-substituted pyrido[1,2-a]benzimidazoles with high GABA-A receptor affinity” (Bioorg Med Chem Lett, 2002).
# How the values were obtained:
# [1] = target: GABA-A receptor; anion channel; assay: In vitro affinity for BZD site on GABA-A receptor from rat cerebral cortex using radioligand [3H]flunitrazepam; assay type: tissue-based
# Mus musculus [2] = organism: Mus musculus; assay: Effective dose required for inhibition of pentylenetetrazole (PTZ)-induced seizures in mice perorally; assay type: functional; details: po
# Mus musculus [3] = assay: Effective dose required for inhibition of pentylenetetrazole (PTZ)-induced seizures in mice intraperitoneally; assay type: functional; details: ip
# [4] = target: T1, GABA-A receptor; anion channel (Rattus norvegicus) (UniProt O09028+P15431+P18506+P18508+P19969+P20236+P23574+P23576+P28471+P28473+P30191+P62813+P63079+P63138+Q91ZM7+Q9ES14); assay: Ratio of the binding in the absence and presence of GABA was determined.; assay type: protein-complex assay
# Rattus norvegicus [5] = organism: Rattus norvegicus; assay: Minimum effective dose required for anticonflict in rat perorally; assay type: functional; details: po, read-out: MED
# [6] = target: T1, GABA-A receptor; anion channel (Rattus norvegicus); assay: Minimum effective dose required for anticonflict in rat intraperitoneally; assay type: functional
# Mus musculus [7] = assay: In vivo effective dose required for inhibition of pentylenetetrazole (PTZ)-induced seizures in mice perorally; assay type: functional
# Rattus norvegicus [8] = assay: In vivo minimum effective dose required for potentiation of EtOH-induced sleep time in rat; assay type: functional; details: for minimal effective dose: Rattus norvegicus, read-out: MED
# Mus musculus [9] = organism: Mus musculus; assay: Effective dose required for motor impairment in the horizontal screen in mouse perorally; assay type: functional
# Rattus norvegicus [10] = assay: In vivo minimum effective dose required for anticonflict effect in rat perorally; assay type: functional; details: for minimal effective dose: Rattus norvegicus, po, read-out: MED
# Mus musculus [11] = assay: In vivo effective dose required for inhibition of pentylenetetrazole (PTZ)-induced seizures in mice intraperitoneally; assay type: functional
# Mus musculus [12] = organism: Mus musculus; assay: Ratio of effective dose required for motor impairment in the horizontal screen to the inhibition of pentylenetetrazole (PTZ)-induced seizures in mice; assay type: functional
# Rattus norvegicus [13] = assay: In vivo minimum effective dose required for anticonflict in rat intraperitoneally; assay type: functional; details: for minimal effective dose: Rattus norvegicus, ip, read-out: MED
# Mus musculus [14] = assay: Effective dose required for motor impairment in the horizontal screen in mouse intraperitoneally; assay type: functional
# Rattus norvegicus [15] = organism: Rattus norvegicus; assay: Ratio of minimum effective dose for potentiation of EtOH-induced sleep time to anticonflict effect in rat; assay type: functional
# Mus musculus [16] = assay: In vivo effective dose required or inhibition of pentylenetetrazole (PTZ)-induced seizures in mice intraperitoneally; assay type: functional; details: ip
# Mus musculus [17] = organism: Mus musculus; assay: Effective dose required for inhibition of pentylenetetrazole (PTZ)-induced seizures in mice perorally; value ranges from 3 to 30; assay type: functional; details: po
# Mus musculus [18] = assay: In vivo effective dose required in vivo for inhibition of pentylenetetrazole (PTZ)-induced seizures in mice perorally; assay type: functional; details: po
# Rattus norvegicus [19] = organism: Rattus norvegicus; assay: Minimum effective dose required for anticonflict in rat perorally; value ranges from 1 to 3; assay type: functional; details: po, read-out: MED
# Mus musculus [20] = organism: Mus musculus; assay: Effective dose required for inhibition of pentylenetetrazole (PTZ)-induced seizures in mice perorally; value ranges from 0.3 to 3; assay type: functional; details: po
# Mus musculus [21] = organism: Mus musculus; assay: animal or person; details: ip
# Rattus norvegicus [22] = organism: Rattus norvegicus; assay: animal or person; details: po, read-out: MED
# Description: Minimum effective dose required for anticonflict in rat after peroral administration of the compound
# Rattus norvegicus [23] = organism: Rattus norvegicus; assay: animal or person; details: ip, read-out: MED
# Description: Minimum effective dose required for anticonflict in rat after intraperitoneal administration of the compound
# Mus musculus [24] = organism: Mus musculus; assay: animal or person; details: po
# [25] = Mus musculus, po, read-out: ED50
# [26] = Mus musculus, ip, read-out: ED50
Structure (SMILES),IC50 [1] [nM],ED50 (Mus musculus [2]) [mg/kg],ED50 (Mus musculus [3]) [mg/kg],GABA shift [4],minimal effective dose (Rattus norvegicus [5]) [mg/kg],MED [6] [mg/kg],other results
O=C1CCN2C(=C1C(=O)Nc1ccccc1F)N(CC1CCCO1)c1cc(F)ccc12 (stereo not drawn),2.3,3,≤ 1,2.2,3,,
O=C1CCN2C(=C1C(=O)Nc1ccccc1F)N(CCc1ccccn1)c1cc(F)ccc12,0.9,10,0.3,2,> 10,10,
COCCOCN1C2=C(C(=O)Nc3ccccc3F)C(=O)CCN2c2ccc(F)cc21,0.8,0.1,0.003,2.2,3,< 10,ED50 (Mus musculus [7]): 0.1; MED (Rattus norvegicus [8]): 3; ED50 (Mus musculus [9]): 30; MED (Rattus norvegicus [10]): 3; ED50 (Mus musculus [11]): 0.003; Ratio (Mus musculus [12]): 300; MED (Rattus norvegicus [13]): <=10; ED50 (Mus musculus [14]): 0.07; Ratio (Rattus norvegicus [15]): 1
CN(C)c1ccc(CCN2C3=C(C(=O)Nc4ccccc4F)C(=O)CCN3c3ccc(F)cc32)cc1,8.5,< 30,1,1.3,,> 10,
CCOCN1C2=C(C(=O)Nc3ccccc3F)C(=O)CCN2c2c1ccc(F)c2F,126,> 30,1,1.7,> 10,,
CC(=O)OCCN1C2=C(C(=O)Nc3ccccc3F)C(=O)CCN2c2ccc(F)cc21,0.2,3,≤ 1,1.2,3,,
O=C1CCN2C(=C1C(=O)Nc1ccccc1F)N(CCn1ccnc1)c1cc(F)ccc12,1.6,10,1,2.6,> 10,,
CCOCN1C2=C(C(=O)Nc3sccc3Cl)C(=O)CCN2c2ccc(F)cc21,0.7,10,≤ 1,1.6,> 10,,
CCOCN1C2=C(C(=O)Nc3c(F)cccc3F)C(=O)CCN2c2ccc(F)cc21,0.6,3,1,1.6,> 10,> 10,
CCOCN1C2=C(C(=O)Nc3cccs3)C(=O)CCN2c2ccc(F)cc21,1,0.2,≤ 1,2.1,3,,
NCCN1C2=C(C(=O)Nc3ccccc3F)C(=O)CCN2c2ccc(F)cc21,5.1,10,0.3,2.7,10,10,
N=C(N)NCCN1C2=C(C(=O)Nc3ccccc3F)C(=O)CCN2c2ccc(F)cc21,5.6,> 30,> 1,1.7,> 10,,
CN(C)/C=N/CCN1C2=C(C(=O)Nc3ccccc3F)C(=O)CCN2c2ccc(F)cc21,35,30,≤ 1,2.1,30,,
O=C(Nc1ccccc1F)C1=C(O)CCn2c1nc1cc(F)ccc12,,> 30,≤ 1,1.8,> 30,10,
O=C1CCN2C(=C1C(=O)Nc1ccccc1F)N(CCO)c1cc(F)ccc12,1.2,< 30,≤ 1,2.7,> 10,10,
CCOCCCN1C2=C(C(=O)Nc3ccccc3F)C(=O)CCN2c2ccc(F)cc21,0.3,0.3,≤ 1,1.6,1,,
CCOCN1C2=C(C(=O)Nc3ccsc3)C(=O)CCN2c2ccc(F)cc21,1,< 0.2,≤ 1,1.7,0.3,,
CCOCN1C2=C(C(=O)Nc3ccccc3F)C(=O)CCN2c2ccc(Cl)cc21,0.5,2,< 1,2.8,> 10,,

Structure (SMILES),IC50 [1] [nM],ED50 (Mus musculus [2]) [mg/kg],ED50 (Mus musculus [3]) [mg/kg],GABA shift [4],minimal effective dose (Rattus norvegicus [5]) [mg/kg],MED [6] [mg/kg],other results
CCOCN1C2=C(C(=O)Nc3ccccc3F)C(=O)CCN2c2cc(F)cc(F)c21,13.3,,,2.9,> 10,,
COC(=O)OCCN1C2=C(C(=O)Nc3ccccc3F)C(=O)CCN2c2ccc(F)cc21,0.3,3,≤ 1,2.2,3,,
CCOCN1C2=C(C(=O)Nc3ccc(C)s3)C(=O)CCN2c2ccc(F)cc21,0.7,0.5,≤ 1,2.3,0.3,,
CCOCN1C2=C(C(=O)Nc3ccccc3F)C(=O)CCN2c2ccc(F)cc21,0.1,0.04,0.01,1.2,0.4,10,ED50 (Mus musculus [7]; po): 0.04 mg/kg; minimal effective dose (Rattus norvegicus [8]): 0.3 mg/kg; ED50 (Mus musculus [9]; [25]): 27 mg/kg; minimal effective dose (Rattus norvegicus [10]): 0.4 mg/kg; Ratio (Mus musculus [12]): 675; ED50 (Mus musculus [16]): 0.01 mg/kg; minimal effective dose (Rattus norvegicus [13]): 10 mg/kg; ED50 (Mus musculus [14]; [26]): 0.3 mg/kg; Ratio (Rattus norvegicus [15]): 1
O=C1CCN2C(=C1C(=O)Nc1ccccc1F)N(CCN1CCOCC1)c1cc(F)ccc12,6.1,30,1,2.2,,> 10,
CCOCN1C2=C(C(=O)Nc3ccccc3F)C(=O)CCN2c2ccccc21,151,3,> 1,2,10,,
CCOCCN1C2=C(C(=O)Nc3ccccc3F)C(=O)CCN2c2ccc(F)cc21,0.5,0.3,≤ 1,3.2,1,< 10,
CCOCN1C2=C(C(=O)Nc3ccc(OC(=O)OC)cc3F)C(=O)CCN2c2ccc(F)cc21,4.3,,1,3.2,1,,ED50 (Mus musculus [17]): 3 mg/kg
CCOCN1C2=C(C(=O)Nc3ccccc3F)C(=O)CCN2c2cc3ccccc3cc21,2.2,> 30,< 1,1.4,> 10,,
O=C1CCN2C(=C1C(=O)Nc1ccccc1F)N(CCCO)c1cc(F)ccc12,1.1,0.5,0.1,1.8,10,10,
CCOCN1C2=C(C(=O)Nc3ccc(OC)cc3F)C(=O)CCN2c2ccc(F)cc21,0.4,0.3,,2.2,0.03,0.1,
CN(C)CCCN1C2=C(C(=O)Nc3ccccc3F)C(=O)CCN2c2ccc(F)cc21,3.3,30,3,1.4,> 10,10,
COCCNCCN1C2=C(C(=O)Nc3ccccc3F)C(=O)CCN2c2ccc(F)cc21,7.4,1,1,1.8,10,10,
CCOCN1C2=C(C(=O)Nc3ccccc3F)C(=O)CCN2c2ccc(F)c(F)c21,0.5,< 3,< 1,1.7,1,,
CCOCN1C2=C(C(=O)Nc3ccc(F)cc3F)C(=O)CCN2c2ccc(F)cc21,1.2,< 3,≤ 1,2,0.1,0.1,minimal effective dose (Rattus norvegicus [8]): 0.1 mg/kg; ED50 (Mus musculus [9]; [25]): 10 mg/kg; minimal effective dose (Rattus norvegicus [10]): 0.1 mg/kg; ED50 (Mus musculus [11]; [26]): < 1 mg/kg; Ratio (Mus musculus [12]): 3; minimal effective dose (Rattus norvegicus [13]): 0.1 mg/kg; ED50 (Mus musculus [14]; [26]): < 1 mg/kg; Ratio (Rattus norvegicus [15]): 1; ED50 (Mus musculus [18]): < 3 mg/kg
CCOCN1C2=C(C(=O)Nc3ccc(O)cc3F)C(=O)CCN2c2ccc(F)cc21,1.4,,,2,,1,minimal effective dose (Rattus norvegicus [19]): 1 mg/kg; ED50 (Mus musculus [20]): 0.3 mg/kg
CN1C(=O)CN=C(c2ccccc2)c2cc(Cl)ccc21 [DIAZEPAM],,,,,,,ED50 (Mus musculus [21]): 0.11 mg/kg; ED50 (Mus musculus [7]; po): 0.5 mg/kg; minimal effective dose (Rattus norvegicus [8]): 5 mg/kg; ED50 (Mus musculus [9]; [25]): 6.3 mg/kg; minimal effective dose (Rattus norvegicus [10]): 5 mg/kg; minimal effective dose (Rattus norvegicus [22]): > 10 mg/kg; ED50 (Mus musculus [11]; [26]): 0.3 mg/kg; minimal effective dose (Rattus norvegicus [23]): 5 mg/kg; minimal effective dose (Rattus norvegicus [13]): 5 mg/kg; ED50 (Mus musculus [14]; [26]): 0.1 mg/kg; ED50 (Mus musculus [24]): 0.5 mg/kg
CN(C)CCN1C2=C(C(=O)Nc3ccccc3F)C(=O)CCN2c2ccc(F)cc21,49.9,≤ 3,0.5,2.7,3,< 10,
